Laboratory results published in patent US12493040B2, “Cancer detection method using sense of smell of nematode” (HIROTSU BIO SCIENCE INC., priority 2013, dated 2025).

Test system: RNAi-treated eri-1 (mg366) nematodes
Test: RNAi screening of olfactory receptor genes: chemotaxis assay of RNAi-treated nematodes to odorants
Format: in vivo, Caenorhabditis elegans
Details: repellent or high concentration of attractant
Method in brief: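 Chemotaxis of adult RNAi-fed eri-1 (mg366) nematodes (30–50 per test) was measured toward low (1 μl, 10^−3 or 10^−4 dilution) or high (1 and 5 μl neat) odorant doses. Knockdown: 4 days feeding on E. coli from Ahringer library with IPTG and ampicillin. Differences called by z score at ±1.96, weaker cutoff ±0.96.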

Q: How did the chemotaxis index (Control nematodes) turn out when `CCCCCCCC(C)=O` [nonanone] was run?
A: −0.91 ± 0.009

Q: And the chemotaxis index (srh-4 RNAi-treated nematodes)?
A: −0.87

Q: What about the chemotaxis index (srh-7 RNAi-treated nematodes) of the same compound?
A: −0.78

Q: And the chemotaxis index (srh-8 RNAi-treated nematodes)?
A: −0.86

Q: What about the chemotaxis index (srh-10 RNAi-treated nematodes) of the same compound?
A: −0.88

Q: What about the chemotaxis index (srh-11 RNAi-treated nematodes) of the same compound?
A: −0.65

Q: What about the chemotaxis index (srh-15 RNAi-treated nematodes) of the same compound?
A: −0.25

Q: What about the chemotaxis index (srh-16 RNAi-treated nematodes) of the same compound?
A: −0.63

Q: What about the chemotaxis index (srh-18 RNAi-treated nematodes) of the same compound?
A: −0.26

Q: What about the chemotaxis index (srh-19 RNAi-treated nematodes) of the same compound?
A: −0.80

Q: And the chemotaxis index (srh-22 RNAi-treated nematodes)?
A: −0.89

Q: And the chemotaxis index (srh-23 RNAi-treated nematodes)?
A: −0.77

Q: And the chemotaxis index (srh-24 RNAi-treated nematodes)?
A: −0.79

Q: And the chemotaxis index (srh-25 RNAi-treated nematodes)?
A: −0.06

Q: What about the chemotaxis index (srh-27 RNAi-treated nematodes) of the same compound?
A: −0.79

Q: And the chemotaxis index (srh-28 RNAi-treated nematodes)?
A: −0.71

Q: What about the chemotaxis index (srh-36 RNAi-treated nematodes) of the same compound?
A: −0.57

Q: And the chemotaxis index (srh-37 RNAi-treated nematodes)?
A: −0.89

Q: And the chemotaxis index (srh-39 RNAi-treated nematodes)?
A: −0.90

Q: And the chemotaxis index (srh-40 RNAi-treated nematodes)?
A: −0.83

Q: What about the chemotaxis index (srh-41 RNAi-treated nematodes) of the same compound?
A: −0.62

Q: And the chemotaxis index (srh-44 RNAi-treated nematodes)?
A: −0.58

Q: What about the chemotaxis index (srh-45 RNAi-treated nematodes) of the same compound?
A: −0.91

Q: What about the chemotaxis index (srh-46 RNAi-treated nematodes) of the same compound?
A: −0.87

Q: And the chemotaxis index (srh-48 RNAi-treated nematodes)?
A: −0.79

Q: What about the chemotaxis index (srh-49 RNAi-treated nematodes) of the same compound?
A: −0.91

Q: What about the chemotaxis index (srh-50 RNAi-treated nematodes) of the same compound?
A: −0.96

Q: What about the chemotaxis index (srh-51 RNAi-treated nematodes) of the same compound?
A: −0.90

Q: What about the chemotaxis index (srh-52 RNAi-treated nematodes) of the same compound?
A: −0.85

Q: What about the chemotaxis index (srh-55 RNAi-treated nematodes) of the same compound?
A: −0.96

Q: And the chemotaxis index (srh-59 RNAi-treated nematodes)?
A: −0.79

Q: And the chemotaxis index (srh-60 RNAi-treated nematodes)?
A: −0.83

Q: What about the chemotaxis index (srh-61 RNAi-treated nematodes) of the same compound?
A: −0.68

Q: What about the chemotaxis index (srh-67 RNAi-treated nematodes) of the same compound?
A: −0.61

Q: What about the chemotaxis index (srh-68 RNAi-treated nematodes) of the same compound?
A: −0.65

Q: What about the chemotaxis index (srh-69 RNAi-treated nematodes) of the same compound?
A: −0.84

Q: What about the chemotaxis index (srh-70 RNAi-treated nematodes) of the same compound?
A: −0.81

Q: What about the chemotaxis index (srh-71 RNAi-treated nematodes) of the same compound?
A: −0.80

Q: And the chemotaxis index (srh-72 RNAi-treated nematodes)?
A: −0.87

Q: What about the chemotaxis index (srh-74 RNAi-treated nematodes) of the same compound?
A: −0.96

Q: And the chemotaxis index (srh-75 RNAi-treated nematodes)?
A: −0.86

Q: And the chemotaxis index (srh-77 RNAi-treated nematodes)?
A: −0.74

Q: And the chemotaxis index (srh-79 RNAi-treated nematodes)?
A: −0.61

Q: What about the chemotaxis index (srh-80 RNAi-treated nematodes) of the same compound?
A: −0.81

Q: And the chemotaxis index (srh-82 RNAi-treated nematodes)?
A: −0.96

Q: What about the chemotaxis index (srh-83 RNAi-treated nematodes) of the same compound?
A: −0.70

Q: And the chemotaxis index (srh-97 RNAi-treated nematodes)?
A: −0.66

Q: What about the chemotaxis index (srh-99 RNAi-treated nematodes) of the same compound?
A: −0.82

Q: And the chemotaxis index (srh-100 RNAi-treated nematodes)?
A: −0.48

Q: And the chemotaxis index (srh-104 RNAi-treated nematodes)?
A: −0.71

Q: And the chemotaxis index (srh-105 RNAi-treated nematodes)?
A: −0.80

Q: What about the chemotaxis index (srh-109 RNAi-treated nematodes) of the same compound?
A: −0.84

Q: What about the chemotaxis index (srh-111 RNAi-treated nematodes) of the same compound?
A: −0.71

Q: And the chemotaxis index (srh-113 RNAi-treated nematodes)?
A: −0.91

Q: What about the chemotaxis index (srh-115 RNAi-treated nematodes) of the same compound?
A: −0.75

Q: What about the chemotaxis index (srh-116 RNAi-treated nematodes) of the same compound?
A: −0.69

Q: What about the chemotaxis index (srh-118 RNAi-treated nematodes) of the same compound?
A: −0.89

Q: And the chemotaxis index (srh-119 RNAi-treated nematodes)?
A: −0.84

Q: What about the chemotaxis index (srh-120 RNAi-treated nematodes) of the same compound?
A: −0.68

Q: What about the chemotaxis index (srh-122 RNAi-treated nematodes) of the same compound?
A: −0.84

Q: And the chemotaxis index (srh-123 RNAi-treated nematodes)?
A: −0.90

Q: What about the chemotaxis index (srh-125 RNAi-treated nematodes) of the same compound?
A: −0.77

Q: What about the chemotaxis index (srh-128 RNAi-treated nematodes) of the same compound?
A: −0.89

Q: What about the chemotaxis index (srh-129 RNAi-treated nematodes) of the same compound?
A: −0.90

Q: What about the chemotaxis index (srh-130 RNAi-treated nematodes) of the same compound?
A: −0.94

Q: What about the chemotaxis index (srh-131 RNAi-treated nematodes) of the same compound?
A: −0.45

Q: What about the chemotaxis index (srh-132 RNAi-treated nematodes) of the same compound?
A: −0.84

Q: What about the chemotaxis index (srh-139 RNAi-treated nematodes) of the same compound?
A: −0.91

Q: What about the chemotaxis index (srh-140 RNAi-treated nematodes) of the same compound?
A: −0.80

Q: What about the chemotaxis index (srh-141 RNAi-treated nematodes) of the same compound?
A: −0.94

Q: What about the chemotaxis index (srh-142 RNAi-treated nematodes) of the same compound?
A: −0.94

Q: What about the chemotaxis index (srh-145 RNAi-treated nematodes) of the same compound?
A: −0.44

Q: What about the chemotaxis index (srh-148 RNAi-treated nematodes) of the same compound?
A: −0.78

Q: And the chemotaxis index (srh-154 RNAi-treated nematodes)?
A: −0.58

Q: And the chemotaxis index (srh-159 RNAi-treated nematodes)?
A: −0.48

Q: What about the chemotaxis index (srh-165 RNAi-treated nematodes) of the same compound?
A: −0.40

Q: What about the chemotaxis index (srh-166 RNAi-treated nematodes) of the same compound?
A: −1.00

Q: And the chemotaxis index (srh-167 RNAi-treated nematodes)?
A: −1.00

Q: And the chemotaxis index (srh-169 RNAi-treated nematodes)?
A: −0.92

Q: What about the chemotaxis index (srh-174 RNAi-treated nematodes) of the same compound?
A: −0.92

Q: What about the chemotaxis index (srh-179 RNAi-treated nematodes) of the same compound?
A: −0.97

Q: And the chemotaxis index (srh-182 RNAi-treated nematodes)?
A: −0.98

Q: What about the chemotaxis index (srh-186 RNAi-treated nematodes) of the same compound?
A: −0.93

Q: And the chemotaxis index (srh-190 RNAi-treated nematodes)?
A: −1.00

Q: What about the chemotaxis index (srh-193 RNAi-treated nematodes) of the same compound?
A: −0.84

Q: What about the chemotaxis index (srh-195 RNAi-treated nematodes) of the same compound?
A: −0.98

Q: What about the chemotaxis index (srh-201 RNAi-treated nematodes) of the same compound?
A: −0.97

Q: And the chemotaxis index (srh-203 RNAi-treated nematodes)?
A: −1.00

Q: And the chemotaxis index (srh-204 RNAi-treated nematodes)?
A: −1.00

Q: And the chemotaxis index (srh-206 RNAi-treated nematodes)?
A: −1.00

Q: What about the chemotaxis index (srh-207 RNAi-treated nematodes) of the same compound?
A: −1.00

Q: What about the chemotaxis index (srh-208 RNAi-treated nematodes) of the same compound?
A: −0.82

Q: What about the chemotaxis index (srh-209 RNAi-treated nematodes) of the same compound?
A: −0.84

Q: And the chemotaxis index (srh-210 RNAi-treated nematodes)?
A: −0.66

Q: What about the chemotaxis index (srh-214 RNAi-treated nematodes) of the same compound?
A: −0.96

Q: And the chemotaxis index (srh-216 RNAi-treated nematodes)?
A: −0.83

Q: What about the chemotaxis index (srh-217 RNAi-treated nematodes) of the same compound?
A: −0.44

Q: What about the chemotaxis index (srh-220 RNAi-treated nematodes) of the same compound?
A: −0.28

Q: What about the chemotaxis index (srh-222 RNAi-treated nematodes) of the same compound?
A: −0.82

Q: And the chemotaxis index (srh-223 RNAi-treated nematodes)?
A: −0.74
